Assay results from US4920103A, “Modifications of mycinose and 3-O-demethylmycinose in tylosin-type macrolides” (Eli Lilly and Company, priority 1986, dated 1990).
Values after ≈ are worked out from the molar mass of the structure shown. Read-outs that look alike come from different tables or passages of the source.

Columns and labels:
Assay type in all cases: cell-based
[1] = tested on: Klebsiella pneumoniae X68; experiment: MIC, standard agar-dilution assay, K. pneumoniae X68
Description: (§1) The MIC's in Table II were determined by standard agar-dilution assays. The MIC's in Table III were obtained using conventional broth-dilution microtiter tests.

[2] = tested on: Pseudomonas aeruginosa X239; experiment: MIC, standard agar-dilution assay, P. aeruginosa X239
Description: as §1

[3] = tested on: Escherichia coli EC14; experiment: MIC, standard agar-dilution assay, E. coli EC14
Description: as §1

[4] = tested on: Haemophilus influenzae C.L.; experiment: MIC, standard agar-dilution assay, H. influenzae C.L.
Description: as §1

[5] = tested on: Staphylococcus aureus X1.1; experiment: MIC, standard agar-dilution assay, S. aureus X1.1
Description: as §1

[6] = tested on: Streptococcus Group D X66; experiment: MIC, standard agar-dilution assay, Streptococcus Group D X66
Description: as §1

[7] = tested on: Staphylococcus aureus V41; experiment: MIC, standard agar-dilution assay, S. aureus V41; details: Staphylococcus aureus, V41
Description: as §1

[8] = tested on: Staphylococcus aureus S13E; experiment: MIC, standard agar-dilution assay, S. aureus S13E
Description: as §1

[9] = tested on: Staphylococcus epidermidis 222; experiment: MIC, standard agar-dilution assay, S. epidermidis 222
Description: as §1

[10] = tested on: Haemophilus influenzae 76; experiment: MIC, standard agar-dilution assay, H. influenzae 76
Description: as §1

[11] = tested on: Staphylococcus aureus X400; experiment: MIC, standard agar-dilution assay, S. aureus X400
Description: as §1

[12] = tested on: Staphylococcus epidermidis EPI1; experiment: MIC, standard agar-dilution assay, S. epidermidis EPI1
Description: as §1

[13] = tested on: Streptococcus Group D 2041; experiment: MIC, standard agar-dilution assay, Streptococcus Group D 2041; details: GROUPD2041
Description: as §1

[14] = tested on: Streptococcus pyogenes C203; experiment: MIC, standard agar-dilution assay, S. pyogenes C203; details: Streptococcus pyogenes, C203
Description: as §1

[15] = tested on: Streptococcus pneumoniae Park I; experiment: MIC, standard agar-dilution assay, S. pneumoniae Park I; details: Streptococcus pneumoniae
Description: as §1

[16] = agar-dilution, ampicillin-sensitive strain, read-out: MIC
[17] = agar-dilution, ampicillin-resistant strain, read-out: MIC
[18] = agar-dilution, methicillin-resistant strain, read-out: MIC

Row | Compound | MIC ([1]; agar-dilution, read-out: MIC) [µg/mL] | MIC ([2]; agar-dilution, read-out: MIC) [µg/mL] | MIC ([3]; agar-dilution, read-out: MIC) [µg/mL] | MIC [4] [µg/mL] | MIC [5] [µg/mL] | MIC [6] [µg/mL] | MIC [7] [µg/mL] | MIC [8] [µg/mL] | MIC [9] [µg/mL] | MIC [10] [µg/mL] | MIC [11] [µg/mL] | MIC [12] [µg/mL] | MIC [13] [µg/mL] | MIC [14] [µg/mL] | MIC [15] [µg/mL] | MIC [4, 16] [µg/mL] | MIC [10, 17] [µg/mL] | other results
1 | CCC1OC(=O)CC(O)C(C)C(OC2OC(C)C(O)C(N(C)C)C2O)C(CCOc2ccccc2)CC(C)C(=O)C=CC(C)=CC1COC1OC(C)C(NCC#N)C(OC)C1OC (stereo not drawn) [Compound 27, 4"-(Cyanomethyl)amino-4"-deoxy-20-DH-20-O-phenyl-desmycosin] | > 128 | > 128 | > 128 | 4 (≈ 4.5 µM) | 0.5 (≈ 0.563 µM) | 8 (≈ 9.01 µM) | 1 (≈ 1.13 µM) | 0.5 (≈ 0.563 µM) | 0.5 (≈ 0.563 µM) | 8 (≈ 9.01 µM) | 0.5 (≈ 0.563 µM) | 0.5 (≈ 0.563 µM) | 16 (≈ 18 µM) | – | – | – | – | –
2 | CCC1OC(=O)CC(O)C(C)C(OC2OC(C)C(O)C(N(C)C)C2O)C(CCOc2ccccc2)CC(C)C(=O)C=CC(C)=CC1COC1OC(C)C(OS(=O)(=O)Cc2ccccc2)C(OC)C1OC (stereo not drawn) [Compound 17, 4"-O-Benzylsulfonyl-20-DH-20-O-phenyl-desmycosin] | – | – | – | > 128 | 4 (≈ 3.98 µM) | 32 (≈ 31.9 µM) | 4 (≈ 3.98 µM) | 4 (≈ 3.98 µM) | 2 (≈ 1.99 µM) | > 128 | 4 (≈ 3.98 µM) | 4 (≈ 3.98 µM) | – | 4 (≈ 3.98 µM) | 2 (≈ 1.99 µM) | – | – | MIC [1]: > 128 µg/mL; MIC [2]: > 128 µg/mL; MIC [3]: > 128 µg/mL; MIC ([13]; agar-dilution, read-out: MIC): 128 µg/mL (≈ 127 µM)
3 | CCC1OC(=O)CC(O)C(C)C(OC2OC(C)C(O)C(N(C)C)C2O)C(CCOc2ccccc2)CC(C)C(=O)C=CC(C)=CC1COC1OC(C)C(I)C(OC)C1OC (stereo not drawn) [Compound 19, 4"-Deoxy-4"-iodo-20-DH-20-O-phenyl-desmycosin] | > 128 | > 128 | > 128 | – | 8 (≈ 8.33 µM) | 8 (≈ 8.33 µM) | 8 (≈ 8.33 µM) | 8 (≈ 8.33 µM) | 8 (≈ 8.33 µM) | – | 8 (≈ 8.33 µM) | 8 (≈ 8.33 µM) | 8 (≈ 8.33 µM) | 8 (≈ 8.33 µM) | 8 (≈ 8.33 µM) | > 128 | > 128 | –
4 | CCC1OC(=O)CC(O)C(C)C(OC2OC(C)C(O)C(N(C)C)C2O)C(CCOc2ccccc2)CC(C)C(=O)C=CC(C)=CC1COC1OC(C)C(NC(C)C)C(OC)C1OC (stereo not drawn) [Compound 35, 4"-Deoxy-20-DH-4"-isopropylamino-20-O-phenyldesmycosin] | > 128 | > 128 | > 128 | – | 8 (≈ 8.98 µM) | 64 (≈ 71.8 µM) | 16 (≈ 18 µM) | 16 (≈ 18 µM) | 8 (≈ 8.98 µM) | – | 16 (≈ 18 µM) | 8 (≈ 8.98 µM) | – | – | – | 128 (≈ 144 µM) | 128 (≈ 144 µM) | MIC ([13]; agar-dilution, read-out: MIC): 128 µg/mL (≈ 144 µM)
5 | CCC1OC(=O)CC(O)C(C)C(OC2OC(C)C(O)C(N(C)C)C2O)C(CCOc2ccccc2)CC(C)C(=O)C=CC(C)=CC1COC1OC(C)C(N(C)C)C(OC)C1OC (stereo not drawn) [Compound 33, 4"-Deoxy-20-DH-4"-dimethylamino-20-O-phenyl-desmycosin] | > 128 | > 128 | > 128 | 64 (≈ 73 µM) | 4 (≈ 4.56 µM) | 32 (≈ 36.5 µM) | 4 (≈ 4.56 µM) | 4 (≈ 4.56 µM) | – | 64 (≈ 73 µM) | – | – | 64 (≈ 73 µM) | – | – | – | – | MIC ([9]; agar-dilution, read-out: MIC): 2 µg/mL (≈ 2.28 µM); MIC [11, 18]: 2 µg/mL (≈ 2.28 µM); MIC ([12]; agar-dilution, read-out: MIC): 2 µg/mL (≈ 2.28 µM)
6 | CCC1OC(=O)CC(O)C(C)C(OC2OC(C)C(O)C(N(C)C)C2O)C(CCOc2ccccc2)CC(C)C(=O)C=CC(C)=CC1COC1OC(C)C(n2cccc2)C(OC)C1OC (stereo not drawn) [Compound 46, 4"-Deoxy-20-DH-20-O-phenyl-4"-pyrrol-1-yl-desmycosin] | – | > 128 | > 128 | – | 8 (≈ 8.9 µM) | 32 (≈ 35.6 µM) | 8 (≈ 8.9 µM) | 8 (≈ 8.9 µM) | 4 (≈ 4.45 µM) | – | 8 (≈ 8.9 µM) | 8 (≈ 8.9 µM) | 64 (≈ 71.2 µM) | 16 (≈ 17.8 µM) | 2 (≈ 2.22 µM) | > 128 | > 128 | –
7 | CCC1OC(=O)CC(O)C(C)C(OC2OC(C)C(O)C(N(C)C)C2O)C(CCOc2ccccc2)CC(C)C(=O)C=CC(C)=CC1COC1OC(C)C(NC)C(OC)C1OC (stereo not drawn) [Compound 31, 4"-Deoxy-20-DH-4"-methylamino-20-O-phenyl-desmycosin] | > 128 | > 128 | > 128 | 32 (≈ 37.1 µM) | 0.5 (≈ 0.579 µM) | 2 (≈ 2.32 µM) | 0.5 (≈ 0.579 µM) | 0.25 (≈ 0.29 µM) | 0.5 (≈ 0.579 µM) | – | 0.5 (≈ 0.579 µM) | – | 2 (≈ 2.32 µM) | – | – | – | – | MIC ([14]; agar-dilution, read-out: MIC): 0.125 µg/mL (≈ 0.145 µM); MIC ([15]; agar-dilution, read-out: MIC): 0.125 µg/mL (≈ 0.145 µM)
8 | CCC1OC(=O)CC(O)C(C)C(OC2OC(C)C(O)C(N(C)C)C2O)C(CCOc2ccccc2)CC(C)C(=O)C=CC(C)=CC1COC1OC(C)C(N(C)CC#N)C(OC)C1OC (stereo not drawn) [Compound 29, 4"-[(Cyanomethyl)methylamino]-4"-deoxy-20-DH-20-O-phenyl-desmycosin] | – | – | – | 16 (≈ 17.7 µM) | 2 (≈ 2.22 µM) | 32 (≈ 35.5 µM) | 2 (≈ 2.22 µM) | 2 (≈ 2.22 µM) | 2 (≈ 2.22 µM) | 32 (≈ 35.5 µM) | 2 (≈ 2.22 µM) | 1 (≈ 1.11 µM) | 64 (≈ 70.9 µM) | – | – | – | – | MIC [1]: > 128 µg/mL; MIC [2]: > 128 µg/mL; MIC [3]: > 128 µg/mL
9 | CCCNC1C(C)OC(OCC2C=C(C)C=CC(=O)C(C)CC(CCOc3ccccc3)C(OC3OC(C)C(O)C(N(C)C)C3O)C(C)C(O)CC(=O)OC2CC)C(OC)C1OC (stereo not drawn) [Compound 38, 4"-Deoxy-20-DH-20-O-phenyl-4"-(n-propylamino)desmycosin] | > 128 | > 128 | > 128 | – | – | – | – | 8 (≈ 8.98 µM) | 8 (≈ 8.98 µM) | – | – | – | 64 (≈ 71.8 µM) | 4 (≈ 4.49 µM) | – | > 128 | > 128 | MIC ([5]; agar-dilution, read-out: MIC): 16 µg/mL (≈ 18 µM); MIC ([6]; agar-dilution, read-out: MIC): 16 µg/mL (≈ 18 µM); MIC ([7]; agar-dilution, penicillin-resistant strain, read-out: MIC): 16 µg/mL (≈ 18 µM); MIC [11, 18]: 16 µg/mL (≈ 18 µM); MIC ([12]; agar-dilution, read-out: MIC): 16 µg/mL (≈ 18 µM)
